Assay results reported in patent US12391648B2, “Pyridyloxy thioester derivative and preparation method therefor, herbicidal composition, and application” (Qingdao Kingagroot Chemical Compound Co., Ltd., priority 2018, dated 2025).

Columns and labels:
Experiment in all cases: Post-emergence test experiment (Table 3, 1000 g/ha)
Assay type in all cases: in vivo
Settings in all cases: post-emergence spray, after 3 weeks, fresh weight inhibition
[1] = system: Monochoria vaginalis
Procedure, shortened: (§1)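 Weed seeds sown in soil-filled pots in greenhouse, sprayed at 2-3 leaf stage (2 weeks after sowing) with compound in acetone/tween-80 plus methyl oleate emulsible concentrate (1.5 L/ha) diluted in water. Fresh-weight growth inhibition scored after 3 weeks on 0-5 scale (5: >85%, 0: <5%).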

[2] = system: Galium spurium
Procedure, shortened: as §1

[3] = system: Digitaria sanguinalis
Procedure, shortened: as §1

[4] = system: Setaria viridis
Procedure, shortened: as §1

[5] = system: Leptochloa chinensis
Procedure, shortened: as §1

[6] = system: Abutilon theophrasti
Procedure, shortened: as §1

Row | Compound | Activity level (growth inhibition rate) Monochoria Vaginalis [1] | Activity level (growth inhibition rate) Galium spurium [2] | Activity level (growth inhibition rate) Digitaria sanguinalis [3] | Activity level (growth inhibition rate) Setaria viridis [4] | Activity level (growth inhibition rate) Leptochloa chinensis [5] | Activity level (growth inhibition rate) Abutilon theophrasti [6]
1 | CCCCC(C)SC(=O)C(C)Oc1nc(F)c(Cl)c(N)c1Cl (stereo not drawn) [Compound 151] | 5 (Level 5: the growth inhibition rate is greater than 85%) | 5 (Level 5: the growth inhibition rate is greater than 85%) | 5 (Level 5: the growth inhibition rate is greater than 85%) | 5 (Level 5: the growth inhibition rate is greater than 85%) | 5 (Level 5: the growth inhibition rate is greater than 85%) | 5 (Level 5: the growth inhibition rate is greater than 85%)
2 | CC(C)CSC(=O)C(C)Oc1nc(F)c(Cl)c(N)c1Cl (stereo not drawn) [Compound 133] | 5 (Level 5: the growth inhibition rate is greater than 85%) | 5 (Level 5: the growth inhibition rate is greater than 85%) | 5 (Level 5: the growth inhibition rate is greater than 85%) | 5 (Level 5: the growth inhibition rate is greater than 85%) | 5 (Level 5: the growth inhibition rate is greater than 85%) | 5 (Level 5: the growth inhibition rate is greater than 85%)
3 | CCOC(=O)CSC(=O)C(C)Oc1nc(F)c(Cl)c(N)c1Cl (stereo not drawn) [Compound 94] | 5 (Level 5: the growth inhibition rate is greater than 85%) | 5 (Level 5: the growth inhibition rate is greater than 85%) | 5 (Level 5: the growth inhibition rate is greater than 85%) | 5 (Level 5: the growth inhibition rate is greater than 85%) | 5 (Level 5: the growth inhibition rate is greater than 85%) | 5 (Level 5: the growth inhibition rate is greater than 85%)
4 | CC(Oc1nc(F)c(Cl)c(N)c1Cl)C(=O)Sc1ccoc1 (stereo not drawn) [Compound 120] | 5 (Level 5: the growth inhibition rate is greater than 85%) | 5 (Level 5: the growth inhibition rate is greater than 85%) | 5 (Level 5: the growth inhibition rate is greater than 85%) | 5 (Level 5: the growth inhibition rate is greater than 85%) | 5 (Level 5: the growth inhibition rate is greater than 85%) | 5 (Level 5: the growth inhibition rate is greater than 85%)
5 | CCCSC(=O)C(C)Oc1nc(F)c(Cl)c(N)c1Cl (stereo not drawn) [Compound 67] | 5 (Level 5: the growth inhibition rate is greater than 85%) | 5 (Level 5: the growth inhibition rate is greater than 85%) | 5 (Level 5: the growth inhibition rate is greater than 85%) | 5 (Level 5: the growth inhibition rate is greater than 85%) | 5 (Level 5: the growth inhibition rate is greater than 85%) | 5 (Level 5: the growth inhibition rate is greater than 85%)
6 | CSC(=O)C(C)Oc1nc(Cl)c(Cl)c(N)c1Cl (stereo not drawn) [Compound 2] | 5 (Level 5: the growth inhibition rate is greater than 85%) | 5 (Level 5: the growth inhibition rate is greater than 85%) | 5 (Level 5: the growth inhibition rate is greater than 85%) | 5 (Level 5: the growth inhibition rate is greater than 85%) | 5 (Level 5: the growth inhibition rate is greater than 85%) | 5 (Level 5: the growth inhibition rate is greater than 85%)
7 | CSC(=O)C(C)Oc1nc(Cl)c(C2CC2)c(N)c1Cl (stereo not drawn) [Compound 10] | 5 (Level 5: the growth inhibition rate is greater than 85%) | 5 (Level 5: the growth inhibition rate is greater than 85%) | 5 (Level 5: the growth inhibition rate is greater than 85%) | 5 (Level 5: the growth inhibition rate is greater than 85%) | 5 (Level 5: the growth inhibition rate is greater than 85%) | 5 (Level 5: the growth inhibition rate is greater than 85%)
8 | CSC(=O)C(C)Oc1ncc(C(C)C)c(N)c1Cl (stereo not drawn) [Compound 9] | 5 (Level 5: the growth inhibition rate is greater than 85%) | 5 (Level 5: the growth inhibition rate is greater than 85%) | 5 (Level 5: the growth inhibition rate is greater than 85%) | 5 (Level 5: the growth inhibition rate is greater than 85%) | 5 (Level 5: the growth inhibition rate is greater than 85%) | 5 (Level 5: the growth inhibition rate is greater than 85%)
9 | CCC(C)CSC(=O)C(C)Oc1nc(F)c(Cl)c(N)c1Cl (stereo not drawn) [Compound 145] | 5 (Level 5: the growth inhibition rate is greater than 85%) | 5 (Level 5: the growth inhibition rate is greater than 85%) | 5 (Level 5: the growth inhibition rate is greater than 85%) | 5 (Level 5: the growth inhibition rate is greater than 85%) | 5 (Level 5: the growth inhibition rate is greater than 85%) | 5 (Level 5: the growth inhibition rate is greater than 85%)
10 | CC(Oc1nc(F)c(Cl)c(N)c1Cl)C(=O)SC(F)(F)C(F)(F)F (stereo not drawn) [Compound 76] | 5 (Level 5: the growth inhibition rate is greater than 85%) | 5 (Level 5: the growth inhibition rate is greater than 85%) | 5 (Level 5: the growth inhibition rate is greater than 85%) | 5 (Level 5: the growth inhibition rate is greater than 85%) | 5 (Level 5: the growth inhibition rate is greater than 85%) | 5 (Level 5: the growth inhibition rate is greater than 85%)
11 | CC(Oc1nc(F)c(Cl)c(N)c1Cl)C(=O)SCCF (stereo not drawn) [Compound 158] | 5 (Level 5: the growth inhibition rate is greater than 85%) | 5 (Level 5: the growth inhibition rate is greater than 85%) | 5 (Level 5: the growth inhibition rate is greater than 85%) | 5 (Level 5: the growth inhibition rate is greater than 85%) | 5 (Level 5: the growth inhibition rate is greater than 85%) | 5 (Level 5: the growth inhibition rate is greater than 85%)
12 | CCCCCCCCSC(=O)C(C)Oc1nc(F)c(Cl)c(N)c1Cl (stereo not drawn) [Compound 73] | 5 (Level 5: the growth inhibition rate is greater than 85%) | 5 (Level 5: the growth inhibition rate is greater than 85%) | 5 (Level 5: the growth inhibition rate is greater than 85%) | 5 (Level 5: the growth inhibition rate is greater than 85%) | 5 (Level 5: the growth inhibition rate is greater than 85%) | 5 (Level 5: the growth inhibition rate is greater than 85%)
13 | CCNc1c(Cl)c(F)nc(OC(C)C(=O)SC)c1Cl (stereo not drawn) [Compound 128] | 5 (Level 5: the growth inhibition rate is greater than 85%) | 5 (Level 5: the growth inhibition rate is greater than 85%) | 5 (Level 5: the growth inhibition rate is greater than 85%) | 5 (Level 5: the growth inhibition rate is greater than 85%) | 5 (Level 5: the growth inhibition rate is greater than 85%) | 5 (Level 5: the growth inhibition rate is greater than 85%)
14 | Cc1ccccc1SC(=O)C(C)Oc1nc(F)c(Cl)c(N)c1Cl (stereo not drawn) [Compound 108] | 5 (Level 5: the growth inhibition rate is greater than 85%) | 5 (Level 5: the growth inhibition rate is greater than 85%) | 5 (Level 5: the growth inhibition rate is greater than 85%) | 5 (Level 5: the growth inhibition rate is greater than 85%) | 5 (Level 5: the growth inhibition rate is greater than 85%) | 5 (Level 5: the growth inhibition rate is greater than 85%)
